Source: US8889699B2, “5-fluorouracil derivative” (Delta-Fly Pharma, Inc., priority 2009, dated 2014)
Read-outs that look alike come from different tables or passages of the source.

Biological target: T1, OPRT (Homo sapiens, UniProt P11172)
T1 construct: the obtained supernatant was used as a DPD enzyme solution or an OPRT enzyme solution; from tissue; 105,000 g supernatant of homogenate
T1 sequence (P11172 1-480): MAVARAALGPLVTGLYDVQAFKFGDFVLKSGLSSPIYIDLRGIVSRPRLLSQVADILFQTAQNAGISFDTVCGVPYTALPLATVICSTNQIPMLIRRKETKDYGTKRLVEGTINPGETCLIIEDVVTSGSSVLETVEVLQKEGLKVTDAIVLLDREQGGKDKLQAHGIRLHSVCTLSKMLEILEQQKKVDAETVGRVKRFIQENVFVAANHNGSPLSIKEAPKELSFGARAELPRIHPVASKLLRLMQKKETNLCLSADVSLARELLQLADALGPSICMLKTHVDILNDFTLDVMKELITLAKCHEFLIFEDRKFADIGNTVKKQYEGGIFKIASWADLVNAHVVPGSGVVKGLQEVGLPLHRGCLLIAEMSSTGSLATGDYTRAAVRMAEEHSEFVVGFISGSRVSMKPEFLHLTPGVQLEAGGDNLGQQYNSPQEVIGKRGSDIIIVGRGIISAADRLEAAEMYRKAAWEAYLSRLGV
Assay: OPRT inhibitory action in vitro (enzyme reaction, tritium-labeled 5-FU as substrate)
Format: biochemical
Description: The resulting product was diluted to concentrations of 1 mM, 100 μM, 10 μM, and 1 μM with a 10 mM potassium phosphate buffer solution (pH 6.0), thereby obtaining Test Liquids 1. The obtained Test Liquids 1 were separately added to the enzyme reaction solution described below to give final concentrations of 200 μM, 20 μM, 2 μM, and 0.2 μM. • (b) Test liquid preparation (2): As a DPD inhibitor, 5-chloro-2,4-dihydroxypyridine (CDHP; gimeracil) was dissolved to a concentration of 10 mM in a 10 mM potassium phosphate buffer solution (pH 6.0). The resulting product was diluted to concentrations of 1 mM, 100 μM, 10 μM, and 1 μM, thereby obtaining Test Liquids 2. The obtained Test Liquids 2 were separately added to the enzyme reaction solution to give final concentrations of 200 μM, 20 μM, 2 μM, and 0.2 μM. • (c) Test liquid preparation (3): As an OPRT inhibitor, citrazinic acid (Citra. A.) was dissolved to a concentration of 10 mM in 20 mM trishydroxyaminomethane-hydrochloric buffer solution (pH 8.0). Thereafter, the resulting product was diluted to concentrations of 1 mM, 100 μM, and 10 μM with a 10 mM potassium phosphate buffer solution, thereby obtaining Test Liquids (3). The obtained Test Liquids 3 were separately added to the enzyme reaction solution to give final concentrations of 200 μM, 20 μM, and 2 μM. • (d) Preparation of enzyme solution: The liver of an 8-week old SD rat was used as a DPD enzyme source, while human tumor cells that had been transplanted into a nude mouse and proliferated therein were used as an OPRT enzyme source. Specifically, immediately after a rat liver or successively-transplanted human tumor cells were extracted, a 50-mM tris-hydrochloric acid buffer solution (pH 8.0) containing 0.25 M saccharose, 5 mM magnesium chloride, and 1 mM dithreitol was added thereto to a concentration of 25% (w/v) and homogenized. Thereafter, ultracentrifugation was performed at 105,000 g for 60 minutes, and the obtained supernatant was used as a DPD enzyme solution or an OPRT enzyme solution. • (e) Enzyme reaction: A DPD enzyme reaction was carried out in accordance with the method of Tatsumi et al. (Gann, 78: 748-755 (1987)) using 5-FU labeled with tritium as a substrate. An OPRT enzyme reaction was carried out in accordance with the method of Shirasaka et al. (Cancer Res., 53: 4004-4009 (1993)) using 5-FU labeled with tritium as a substrate. Then, the activity of a control group (with no test compound) and test compound groups was measured. The percent inhibition of the test compound relative to DPD or OPRT was calculated using the following formula: [1-(the enzyme activity with the test compound/the enzyme activity of the control group)]×100(%).
The resulting product was diluted to concentrations of 1 mM, 100 μM, 10 μM, and 1 μM with a 10 mM potassium phosphate buffer solution (pH 6.0), thereby obtaining Test Liquids 1. The obtained Test Liquids 1 were separately added to the enzyme reaction solution described below to give final concentrations of 200 μM, 20 μM, 2 μM, and 0.2 μM. • (b) Preparation of enzyme solution: The liver of an 8-week old SD rat was used as a DPD enzyme source, while human tumor cells that had been transplanted into a nude mouse and proliferated therein were used as an OPRT enzyme source. Specifically, immediately after a rat liver or successively-transplanted human tumor cells were extracted, a 50-mM tris-hydrochloric acid buffer solution (pH 8.0) containing 0.25 M saccharose, 5 mM magnesium chloride, and 1 mM dithreitol was added thereto to a concentration of 25% (w/v) and homogenized. Thereafter, ultracentrifugation was performed at 105,000 g for 60 minutes, and the obtained supernatant was used as a DPD enzyme solution or an OPRT enzyme solution. • (c) Enzyme reaction: A DPD enzyme reaction was carried out in accordance with the method of Tatsumi et al. (Gann, 78: 748-755 (1987)) using 5-FU labeled with tritium as a substrate. […]

[1] = 0.2 μM, Table 2, read-out: OPRT Inhibition (%)
[2] = 2 μM, Table 2, read-out: OPRT Inhibition (%)
[3] = Conc. 0.2 μM, Table 1, read-out: OPRT Inhibitory Activity: Inhibition
[4] = Conc. 2 μM, Table 1, read-out: OPRT Inhibitory Activity: Inhibition

| Structure (SMILES) | inhibition at 0.2 µM [1] | inhibition at 2 µM [2] | OPRT Inhibitory Activity: Activity (Conc. 0.2 μM, Table 1) | inhibition at 0.2 µM [3] | OPRT Inhibitory Activity: Activity (Conc. 2 μM, Table 1) | inhibition at 2 µM [4] | OPRT Inhibitory Activity: Activity (Conc. 20 μM, Table 1) | inhibition at 20 µM (Conc. 20 μM, Table 1) | OPRT Inhibitory Activity: Activity (Conc. 200 μM, Table 1) | inhibition at 200 µM (Conc. 200 μM, Table 1) | further results |
| --- | --- | --- | --- | --- | --- | --- | --- | --- | --- | --- | --- |
| O=C(O)c1cc(O)nc(O)c1 [Citra. A., citrazinic acid, reference compound] | 31.9% | 75.1% | 0.379 nmol/mL/min | 0% | 0.301 nmol/mL/min | 20% | 0.173 nmol/mL/min | 54% | 0.075 nmol/mL/min | 80% | – |
| CCOCn1cc(F)c(=O)n(C(=O)c2cccc(C(=O)Oc3cc(OC(=O)c4cc(O)nc(O)c4)c(Cl)cn3)c2)c1=O [Compound I-2, 3-{3-[4-(2,6-dihydroxyisonicotinoyloxy)-5-chloro-2-pyridyloxycarbonyl]benzoyl}-1-ethoxymethyl-5-fluorouracil] | – | – | 0.375 nmol/mL/min | 0% | 0.280 nmol/mL/min | 25.5% | 0.168 nmol/mL/min | 55.3% | 0.069 nmol/mL/min | 81.6% | – |
| CCOCn1cc(F)c(=O)n(C(=O)c2cccc(C(=O)Oc3cc(OC(=O)c4cc(OC(=O)C5CCCC5)nc(OC(=O)C5CCCC5)c4)c(Cl)cn3)c2)c1=O [Compound I-9, 3-{3-[4-(2,6-dicyclopentanecarbonyloxyisonicotinoyloxy)-5-chloro-2-pyridyloxycarbonyl]benzoyl}-1-ethoxymethyl-5-fluorouracil] | 41.2% | 75.9% | – | – | – | – | – | – | – | – | – |
| CCOCn1cc(F)c(=O)n(C(=O)c2cccc(C(=O)Oc3cc(OC(=O)c4cc(OC(C)=O)nc(OC(C)=O)c4)c(Cl)cn3)c2)c1=O [Compound I-10, 3-{3-[4-(2,6-diacetyloxyisonicotinoyloxy)-5-chloro-2-pyridyloxycarbonyl]benzoyl}-1-ethoxymethyl-5-fluorouracil] | 27.8% | 76.4% | – | – | – | – | – | – | – | – | – |
| CCOCn1cc(F)c(=O)n(C(=O)c2cccc(C(=O)Oc3cc(OC(=O)c4cc(OC(=O)CC)nc(OC(=O)CC)c4)c(Cl)cn3)c2)c1=O [Compound I-11, 3-{3-[4-(2,6-dipropionyloxyisonicotinoyloxy)-5-chloro-2-pyridyloxycarbonyl]benzoyl}-1-ethoxymethyl-5-fluorouracil] | – | – | – | – | – | – | – | – | – | – | IC50 (5-FU as substrate, Test Example 4, read-out: IC50 of OPRT activity inhibition): ~15 µM; OPRT Inhibitory Activity: Activity (Conc. 0.2 μM, Table 5): 0.101 nmol/mL/min; inhibition at 0.2 µM (Conc. 0.2 μM, Table 5, read-out: OPRT Inhibitory Activity: Inhibition): 42.6%; OPRT Inhibitory Activity: Activity (Conc. 2 μM, Table 5): 0.098 nmol/mL/min; inhibition at 2 µM (Conc. 2 μM, Table 5, read-out: OPRT Inhibitory Activity: Inhibition): 73.4%; OPRT Inhibitory Activity: Activity (Conc. 20 μM, Table 5): 0.046 nmol/mL/min; inhibition at 20 µM (Conc. 20 μM, Table 5): 87.5% |
